Assay results published in patent publication US20240124491A1, “METHODS AND COMPOUNDS FOR TREATING FRIEDREICH'S ATAXIA” (Design Therapeutics, Inc., priority 2021, published 2024).

These compounds were tested on human FXN (assay: EC50 assay: FXN mRNA expression by qRT-PCR in GM15850 cells after 48 hrs compound treatment). Details: Homo sapiens, 48 hrs incubation, hFXN expression normalized to hGAPDH (qRT-PCR), read-out: EC50 WT (nM, 48 hr).
Assay type: cell-based
How it was run: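 FXN transcript, normalized to GAPDH by TaqMan qRT-PCR, read out after 48 hrs of compound on GM15850 cells plated at 150,000 per well. Dosing used five 3-fold steps from 150 nM final, vehicle 0.01% DMSO.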

First: Cc1cc(F)cc(C)c1Oc1ccc(C(C)(C)O)cc1-c1cn(C)c(=O)c2[nH]c(C(=O)Nc3ccc(OCCOCCOCCOCCOCCOCCOCCOCCOCCNC(=O)CCNC(=O)c4nc(NC(=O)CCNC(=O)c5cc(NC(=O)c6nc(NC(=O)CCNC(=O)c7cc(NC(=O)c8nccn8C)c[nH]7)cn6C)c[nH]5)cn4C)cc3)cc12 [Compound 224, N-(5-{[2-({2-[(2-{[26-(4-{4-[2-(4-fluoro-2,6-dimethylphenoxy)-5-(2-hydroxypropan-2-yl)phenyl]-6-methyl-7-oxo-1H-pyrrolo[2,3-c]pyridine-2-amido}phenoxy)-3,6,9,12,15,18,21,24-octaoxahexacosan-1-yl]carbamoyl]ethyl)carbamoyl]-1-methylimidazol-4-yl]carbamoyl)ethyl]carbamoyl]-1H-pyrrol-3-yl)-1-methyl-4-(3-{[4-(1-methylimidazole-2-amido)-1H-pyrrol-2-yl]formamido]propanamido)imidazole-2-carboxamide]
Second: COCCOCCOCCOCCN(CCCCCn1cc(NC(=O)c2nc(NC(=O)CCNC(=O)c3cc(NC(=O)c4nccn4C)cn3C)cn2C)cc1C(=O)NCCC(=O)Nc1cn(C)c(C(=O)NCCC(=O)NCCOCCOCCOCCOCCOCCOCCOCCOCCOc2ccc(NC(=O)c3cc4c(-c5cc(C(C)(C)O)ccc5Oc5c(C)cc(F)cc5C)cn(C)c(=O)c4[nH]3)cc2)n1)CCOCCOCCOCCOC [Compound 241]
The EC50 of the first is lower: less than 100 nM for the first, greater than 500 nM for the second. The first is the more potent here.

Cc1sc2c(c1C)C(c1ccc(Cl)cc1)=N[C@@H](CC(=O)Nc1ccc(OCCOCCOCCOCCOCCOCCOCCOCCOCCNC(=O)CCNC(=O)CCNC(=O)c3nc(NC(=O)CCNC(=O)c4cc(NC(=O)c5nc(NC(=O)CCNC(=O)c6cc(NC(=O)c7nccn7C)cn6C)cn5C)cn4C)cn3C)cc1)c1nnc(C)n1-2 [Compound 229] and Cc1sc2c(c1C)C(c1ccc(Cl)cc1)=N[C@H](CC(=O)Nc1ccc(OCCOCCOCCOCCOCCOCCOCCOCCOCCNC(=O)CCNC(=O)c3nc(NC(=O)CCNC(=O)c4cc(NC(=O)c5nc(NC(=O)CCNC(=O)c6cc(NC(=O)c7nccn7C)cn6C)cn5C)cn4C)cn3C)cc1)c1nnc(C)n1-2 [Compound 231] cannot be ordered by EC50: less than 100 nM for the first, less than 100 nM for the second.

Cc1cc(F)cc(C)c1Oc1ccc(C(C)(C)O)cc1-c1cn(C)c(=O)c2[nH]c(C(=O)Nc3ccc(OCCOCCOCCOCCOCCOCCOCCOCCOCCNC(=O)CCNC(=O)c4nc(NC(=O)CCNC(=O)c5cc(NC(=O)c6nc(NC(=O)CCNC(=O)c7cc(NC(=O)c8nccn8C)cn7C)cn6C)cn5C)cn4C)c(OC(=O)c4cc5c(-c6cc(C(C)(C)O)ccc6Oc6c(C)cc(F)cc6C)cn(C)c(=O)c5[nH]4)c3)cc12 [Compound 240] and COCCOCCOCCOCCOCCOCCOCCOCCN(CCCCCn1cc(NC(=O)c2nc(NC(=O)CCNC(=O)c3cc(NC(=O)c4nccn4C)cn3C)cn2C)cc1C(=O)NCCC(=O)Nc1cn(C)c(C(=O)NCCC(=O)NCCOCCOCCOCCOCCOCCOCCOCCOCCOc2ccc(NC(=O)c3cc4c(-c5cc(C(C)(C)O)ccc5Oc5c(C)cc(F)cc5C)cn(C)c(=O)c4[nH]3)cc2)n1)CCOCCOCCOCCOCCOCCOCCOCCOC [Compound 242] cannot be ordered by EC50: less than 100 nM for the first, less than 100 nM for the second.
